13 molecules from ChEMBL document CHEMBL4417631, “Oral peptide inhibitors of interleukin-23 receptor and their use to treat inflammatory bowel diseases” (2017) can be followed below.

Where a SMILES comes first, the peptide text is derived from it. Bounds are passed on as bounds.

A word on the IC50: it is the point on the concentration scale where inhibition reaches its midpoint. A lower IC50 goes with greater potency in that assay.

The target of this test is T1, Interleukin-23 receptor (Homo sapiens, UniProt Q5VWK5).
T1 sequence (Q5VWK5 whole entry): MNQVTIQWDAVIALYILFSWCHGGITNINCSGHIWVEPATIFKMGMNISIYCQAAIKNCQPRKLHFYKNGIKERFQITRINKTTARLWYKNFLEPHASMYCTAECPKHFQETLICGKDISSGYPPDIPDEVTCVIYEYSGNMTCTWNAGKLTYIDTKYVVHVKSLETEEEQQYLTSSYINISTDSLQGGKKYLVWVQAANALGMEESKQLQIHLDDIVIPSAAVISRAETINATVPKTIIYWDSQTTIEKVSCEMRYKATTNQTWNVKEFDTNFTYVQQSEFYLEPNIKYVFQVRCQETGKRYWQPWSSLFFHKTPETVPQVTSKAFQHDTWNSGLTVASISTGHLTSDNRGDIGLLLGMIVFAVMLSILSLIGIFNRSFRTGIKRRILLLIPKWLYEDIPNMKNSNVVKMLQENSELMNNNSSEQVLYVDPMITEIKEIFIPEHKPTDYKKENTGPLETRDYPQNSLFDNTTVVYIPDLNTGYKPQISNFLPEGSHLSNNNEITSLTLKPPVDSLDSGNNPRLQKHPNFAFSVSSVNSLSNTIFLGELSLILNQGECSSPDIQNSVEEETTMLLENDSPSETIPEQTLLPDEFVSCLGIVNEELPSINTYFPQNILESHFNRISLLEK
The experiment in a line: Inhibition of interleukin-23 binding to human interleukin-23 receptor incubated for 2 hrs by competitive binding ELISA.
`CC(=O)N[C@@H](CS)C(=O)N[C@@H](CCC(N)=O)C(=O)N[C@H](C(=O)N[C@@H](Cc1c[nH]c2ccccc12)C(=O)N[C@@H](CCC(N)=O)C(=O)N[C@@H](CS)C(=O)N[C@@H](CC1CCCCC1)C(=O)N[C@@H](Cc1c[nH]c2ccccc12)C(=O)N[C@@H](CCC(C)C)C(=O)N[C@@H](CCC(=O)O)C(=O)N[C@@H](CC(N)=O)C(=O)NCC(N)=O)[C@@H](C)O`: the IC50 worked out at 6000 nM.

`CC(=O)N[C@@H](CCCNC(=N)N)C(=O)N[C@@H](CCC(=O)O)C(=O)NCC(=O)N[C@H](C(=O)N[C@@H](CS)C(=O)N[C@@H](CO)C(=O)N[C@H](C(=O)N[C@@H](Cc1c[nH]c2ccccc12)C(=O)N[C@@H](CCCCN)C(=O)N[C@@H](CS)C(=O)N[C@@H](Cc1ccc(O)cc1)C(=O)N[C@@H](Cc1c[nH]c2ccccc12)C(=O)N[C@@H](Cc1cnc[nH]1)C(=O)N[C@H](C(=O)N[C@@H](Cc1ccccc1)C(=O)NCC(N)=O)[C@@H](C)O)[C@@H](C)O)[C@@H](C)O` (Ac-REGTCSTWKCYWHTFG-NH2) displayed an IC50 of 500 to 1000 nM.

`CC(=O)N[C@@H](CS)C(=O)N[C@@H](CCC(N)=O)C(=O)N[C@H](C(=O)N[C@@H](Cc1c[nH]c2ccccc12)C(=O)N[C@@H](CCC(N)=O)C(=O)N[C@@H](CS)C(=O)N[C@@H](Cc1ccc(O)cc1)C(=O)N[C@@](C)(Cc1c[nH]c2ccccc12)C(=O)N[C@@H](CCCNC(N)=O)C(=O)N[C@@H](CCC(C)C)C(=O)N[C@@H](CC(N)=O)C(=O)NCC(=O)NCCC(=O)N[C@H](CCCCN)C(N)=O)[C@@H](C)O` came in with an IC50 of 6000 nM.

On to `CC(=O)N[C@H](C(=O)N[C@@](C)(CCCN)C(=O)N[C@H](C(=O)N[C@@H](Cc1c[nH]c2ccccc12)C(=O)N[C@@H](CCC(N)=O)C(=O)N[C@H](C(=O)N[C@@H](Cc1ccc(OCCN)cc1)C(=O)N[C@@H](Cc1ccc2ccccc2c1)C(=O)N[C@@](C)(CCCCN)C(=O)N[C@@H](CCC(=O)O)C(=O)N[C@@H](CC(N)=O)C(=O)NCC(N)=O)C(C)(C)S)[C@@H](C)O)C(C)(C)S`, for which the IC50 lay in the range of 100 to 1000 nM.

Molecule `C[C@@H](O)[C@H](NC(=O)[C@H](CCCNC(=N)N)NC(=O)[C@@H](N)CS)C(=O)N[C@@H](Cc1c[nH]c2ccccc12)C(=O)N[C@@H](CCC(N)=O)C(=O)N[C@@H](CS)C(=O)N[C@@H](Cc1ccc(O)cc1)C(=O)N[C@@H](Cc1c[nH]c2ccccc12)C(=O)N[C@@H](CCCNC(=N)N)C(=O)N[C@@H](CCCCN)C(=O)N[C@@H](Cc1ccccc1)C(=O)NCC(N)=O` (H-CRTWQCYWRKFG-NH2) showed an IC50 of less than 500 nM.

Molecule `C[C@H](N)C(=O)N[C@@H](C)C(=O)N[C@@H](CC(=O)O)C(=O)N[C@@H](Cc1c[nH]c2ccccc12)C(=O)N[C@@H](CS)C(=O)N[C@@H](C)C(=O)N[C@@H](Cc1ccc(O)cc1)C(=O)N[C@@H](Cc1c[nH]c2ccccc12)C(=O)N[C@@H](CS)C(=O)N[C@H](C(=O)N[C@@H](Cc1ccccc1)C(=O)NCC(N)=O)[C@@H](C)O` (H-AADWCAYWCTFG-NH2) gave an IC50 of more than 1000 nM.

As to `CC(C)[C@H](NC(=O)[C@H](Cc1c[nH]c2ccccc12)NC(=O)[C@H](CC(=O)O)NC(=O)[C@H](CS)NC(=O)[C@H](C)N)C(=O)N[C@@H](CS)C(=O)N[C@@H](Cc1ccc(O)cc1)C(=O)N[C@@H](Cc1c[nH]c2ccccc12)C(=O)N[C@@H](Cc1cnc[nH]1)C(=O)N[C@H](C(=O)N[C@@H](Cc1ccccc1)C(=O)NCC(N)=O)[C@@H](C)O`, the IC50 was more than 1000 nM.

The molecule `CC(=O)N[C@H](CCCCN)C(=O)N[C@@H](CO)C(=O)N[C@@H](CS)C(=O)N[C@@H](C)C(=O)N[C@@H](CC(=O)O)C(=O)N[C@@H](Cc1c[nH]c2ccccc12)C(=O)N[C@H](C(=O)N[C@@H](CS)C(=O)N[C@@H](Cc1ccc(O)cc1)C(=O)N[C@@H](Cc1c[nH]c2ccccc12)C(=O)N[C@@H](Cc1cnc[nH]1)C(=O)N[C@H](C(=O)N[C@@H](Cc1ccccc1)C(=O)NCC(=O)O)[C@@H](C)O)C(C)C` registered a concentration for half-maximal inhibition (IC50) of more than 1000 nM.

`CC(=O)N[C@@H](CS)C(=O)N[C@@H](CCC(N)=O)C(=O)N[C@H](C(=O)N[C@@H](Cc1c[nH]c2ccccc12)C(=O)N[C@@H](CCC(N)=O)C(=O)N[C@@H](CS)C(=O)N[C@@H](Cc1ccc(O)cc1)C(=O)N1Cc2ccccc2C[C@H]1CC(=O)N[C@@H](CCCNC(=N)N)C(=O)N[C@H](C(=O)N[C@@H](CC(N)=O)C(=O)NCC(=O)NCCOCC(=O)N[C@H](CCCCN)C(N)=O)C(C)C)[C@@H](C)O` came in with an IC50 of more than 30000 nM.

With `CC(=O)N[C@@H](CS)C(=O)N[C@@H](C)C(=O)N[C@@H](CC(=O)O)C(=O)N[C@@H](Cc1c[nH]c2ccccc12)C(=O)N[C@@H](CCCCNC(=O)COCC(=O)NCCCC[C@H](NC(=O)[C@H](Cc1c[nH]c2ccccc12)NC(=O)[C@H](CC(=O)O)NC(=O)[C@H](C)NC(=O)[C@H](CS)NC(C)=O)C(=O)N[C@@H](CS)C(=O)N[C@@H](Cc1ccc(O)cc1)C(=O)N[C@@H](Cc1c[nH]c2ccccc12)C(=O)N[C@@H](Cc1cnc[nH]1)C(=O)N[C@H](C(=O)N[C@@H](Cc1ccccc1)C(=O)NCC(=O)O)[C@@H](C)O)C(=O)N[C@@H](CS)C(=O)N[C@@H](Cc1ccc(O)cc1)C(=O)N[C@@H](Cc1c[nH]c2ccccc12)C(=O)N[C@@H](Cc1cnc[nH]1)C(=O)N[C@H](C(=O)N[C@@H](Cc1ccccc1)C(=O)NCC(=O)O)[C@@H](C)O`, the IC50 was more than 10000 nM.

`CC(=O)N[C@@H](CS)C(=O)N[C@@H](CCC(N)=O)C(=O)N[C@H](C(=O)N[C@@H](Cc1c[nH]c2ccccc12)C(=O)N[C@@H](CCC(N)=O)C(=O)N[C@@H](CS)C(=O)N[C@@H](Cc1ccc(O)cc1)C(=O)N[C@@H](CCc1ccccc1)CC(=O)N[C@@H](CCCNC(=N)N)C(=O)N[C@H](C(=O)N[C@@H](CC(N)=O)C(=O)NCC(=O)NCCOCC(=O)N[C@H](CCCCN)C(N)=O)C(C)C)[C@@H](C)O` gave an IC50 of more than 30000 nM.

Take `CC(=O)N[C@@H](CS)C(=O)N[C@@H](C)C(=O)N[C@@H](CC(=O)O)C(=O)N[C@@H](Cc1c[nH]c2ccccc12)C(=O)N[C@H](C(=O)N[C@@H](CS)C(=O)N[C@@H](Cc1ccc(O)cc1)C(=O)N[C@@H](Cc1c[nH]c2ccccc12)C(=O)N[C@@H](Cc1cnc[nH]1)C(=O)N[C@H](C(=O)N[C@@H](Cc1ccccc1)C(=O)NCC(=O)NCCOCC(=O)N[C@H](CCCCNC(=O)COCC(=O)NCCCC[C@@H](NC(=O)COCCNC(=O)CNC(=O)[C@H](Cc1ccccc1)NC(=O)[C@@H](NC(=O)[C@H](Cc1cnc[nH]1)NC(=O)[C@H](Cc1c[nH]c2ccccc12)NC(=O)[C@H](Cc1ccc(O)cc1)NC(=O)[C@H](CS)NC(=O)[C@@H](NC(=O)[C@H](Cc1c[nH]c2ccccc12)NC(=O)[C@H](CC(=O)O)NC(=O)[C@H](C)NC(=O)[C@H](CS)NC(C)=O)C(C)C)[C@@H](C)O)C(=O)O)C(=O)O)[C@@H](C)O)C(C)C`: the IC50 lay within 25 to 100 nM.

Molecule `CC(C)[C@H](NC(=O)[C@H](Cc1c[nH]c2ccccc12)NC(=O)[C@H](CC(=O)O)NC(=O)[C@H](C)NC(=O)[C@@H](N)CS)C(=O)N[C@@H](CS)C(=O)N[C@@H](Cc1ccc(O)cc1)C(=O)N[C@@H](Cc1c[nH]c2ccccc12)C(=O)N[C@@H](Cc1cnc[nH]1)C(=O)N[C@H](C(=O)N[C@@H](Cc1ccccc1)C(=O)NCC(=O)N[C@@H](CCCCN)C(=O)O)[C@@H](C)O` had an IC50 of more than 1000 nM.
